Assay results: patent US9481677B2, “Biaryl ether sulfonamides and their use as therapeutic agents” (XENON PHARMACEUTICALS INC., priority 2011, dated 2016)

target: Nav1.7 (Homo sapiens (Human), UniProt Q15858); experiment: Patch voltage clamp electrophysiology, block of inactivated-state Nav1.7 in HEK-293 cells; type: cell-based; conditions: affinity for the inactivated state; HEK-293 cells with β1 subunit; held at -60 mV; read-out: NaV1.7 (IC50 class)
Protocol: Patch voltage clamp electrophysiology allows for the direct measurement and quantification of block of voltage-gated sodium channels (Nav's), and allows the determination of the time- and voltage-dependence of block which has been interpreted as differential binding to the resting, open, and inactivated states of the sodium channel (Hille, B., Journal of General Physiology (1977), 69: 497-515).
The following patch voltage clamp electrophysiology studies were performed on representative compounds of the invention using human embryonic kidney cells (HEK), permanently transfected with an expression vector containing the full-length cDNA coding for the desired human sodium channel α-subunit, grown in culture media containing 10% FBS, 1% PSG, and 0.5 mg/mL G418 at 37° C. with 5% CO2. […] Nav1.7 and Nav1.5 cDNAs (NM_002977 and AC137587; SCN5A, respectively) were stably expressed in HEK-293 cells. The β1 subunit was coexpressed only in the Nav1.7 cell line.
Sodium currents were measured using the patch clamp technique in the whole-cell configuration using either a PatchXpress automated voltage clamp or manually using an Axopatch 200B (Axon Instruments) or Model 2400 (A-M systems) amplifier. […] The pipette was filled with a solution comprised of: 5 mM NaCl, 10 mM CsCl, 120 mM CsF, 0.1 mM CaCl2, 2 mM MgCl2, 10 mM HEPES, 10 mM EGTA; and adjusted to pH 7.2 with CsOH. The external solution had the following composition: 140 mM NaCl, 5 mM KCl, 2 mM CaCl2, 1 mM MgCl2, 10 mM HEPES; and adjusted to pH 7.4 with NaOH. In some studies, the external sodium was reduced by equimolar replacement with choline. Osmolarity in the CsF internal and NaCl external solutions was adjusted to 300 mOsm/kg and 310 mOsm/kg with glucose, respectively. All recordings were performed at ambient temperature in a bath chamber with a volume of 150 μL. Control sodium currents were measured in 0.5% DMSO. Controls and representative compounds of the invention were applied to the recording chamber through a 4-pinch or 8-pinch valve bath perfusion system manufactured by ALA Scientific Instruments.
Currents were recorded at 40 kHz sampling frequency, filtered at […], and stored using a Digidata-1322A analogue/digital interface with the pClamp software (Axon Instruments). Series resistance compensation was applied (60-80%). […] All statistics in this study are given as mean±SD.
The membrane potential was maintained at a voltage where inactivation of the channel is complete (which was −60 mV for both Nav1.7 and Nav1.5). The voltage is then stepped back to a very negative (Vhold=−150 mV) voltage for 20 ms and then a test pulse is applied to quantify the compound block. […] The percent decrease in sodium current following wash-on of compound was taken as the percent block of sodium channels.
The Example numbers provided in Table 1 and Table 2 correspond to the Examples herein.

Nav1.7, sequence (Q15858 other isoform, or with tags, fused parts or gaps): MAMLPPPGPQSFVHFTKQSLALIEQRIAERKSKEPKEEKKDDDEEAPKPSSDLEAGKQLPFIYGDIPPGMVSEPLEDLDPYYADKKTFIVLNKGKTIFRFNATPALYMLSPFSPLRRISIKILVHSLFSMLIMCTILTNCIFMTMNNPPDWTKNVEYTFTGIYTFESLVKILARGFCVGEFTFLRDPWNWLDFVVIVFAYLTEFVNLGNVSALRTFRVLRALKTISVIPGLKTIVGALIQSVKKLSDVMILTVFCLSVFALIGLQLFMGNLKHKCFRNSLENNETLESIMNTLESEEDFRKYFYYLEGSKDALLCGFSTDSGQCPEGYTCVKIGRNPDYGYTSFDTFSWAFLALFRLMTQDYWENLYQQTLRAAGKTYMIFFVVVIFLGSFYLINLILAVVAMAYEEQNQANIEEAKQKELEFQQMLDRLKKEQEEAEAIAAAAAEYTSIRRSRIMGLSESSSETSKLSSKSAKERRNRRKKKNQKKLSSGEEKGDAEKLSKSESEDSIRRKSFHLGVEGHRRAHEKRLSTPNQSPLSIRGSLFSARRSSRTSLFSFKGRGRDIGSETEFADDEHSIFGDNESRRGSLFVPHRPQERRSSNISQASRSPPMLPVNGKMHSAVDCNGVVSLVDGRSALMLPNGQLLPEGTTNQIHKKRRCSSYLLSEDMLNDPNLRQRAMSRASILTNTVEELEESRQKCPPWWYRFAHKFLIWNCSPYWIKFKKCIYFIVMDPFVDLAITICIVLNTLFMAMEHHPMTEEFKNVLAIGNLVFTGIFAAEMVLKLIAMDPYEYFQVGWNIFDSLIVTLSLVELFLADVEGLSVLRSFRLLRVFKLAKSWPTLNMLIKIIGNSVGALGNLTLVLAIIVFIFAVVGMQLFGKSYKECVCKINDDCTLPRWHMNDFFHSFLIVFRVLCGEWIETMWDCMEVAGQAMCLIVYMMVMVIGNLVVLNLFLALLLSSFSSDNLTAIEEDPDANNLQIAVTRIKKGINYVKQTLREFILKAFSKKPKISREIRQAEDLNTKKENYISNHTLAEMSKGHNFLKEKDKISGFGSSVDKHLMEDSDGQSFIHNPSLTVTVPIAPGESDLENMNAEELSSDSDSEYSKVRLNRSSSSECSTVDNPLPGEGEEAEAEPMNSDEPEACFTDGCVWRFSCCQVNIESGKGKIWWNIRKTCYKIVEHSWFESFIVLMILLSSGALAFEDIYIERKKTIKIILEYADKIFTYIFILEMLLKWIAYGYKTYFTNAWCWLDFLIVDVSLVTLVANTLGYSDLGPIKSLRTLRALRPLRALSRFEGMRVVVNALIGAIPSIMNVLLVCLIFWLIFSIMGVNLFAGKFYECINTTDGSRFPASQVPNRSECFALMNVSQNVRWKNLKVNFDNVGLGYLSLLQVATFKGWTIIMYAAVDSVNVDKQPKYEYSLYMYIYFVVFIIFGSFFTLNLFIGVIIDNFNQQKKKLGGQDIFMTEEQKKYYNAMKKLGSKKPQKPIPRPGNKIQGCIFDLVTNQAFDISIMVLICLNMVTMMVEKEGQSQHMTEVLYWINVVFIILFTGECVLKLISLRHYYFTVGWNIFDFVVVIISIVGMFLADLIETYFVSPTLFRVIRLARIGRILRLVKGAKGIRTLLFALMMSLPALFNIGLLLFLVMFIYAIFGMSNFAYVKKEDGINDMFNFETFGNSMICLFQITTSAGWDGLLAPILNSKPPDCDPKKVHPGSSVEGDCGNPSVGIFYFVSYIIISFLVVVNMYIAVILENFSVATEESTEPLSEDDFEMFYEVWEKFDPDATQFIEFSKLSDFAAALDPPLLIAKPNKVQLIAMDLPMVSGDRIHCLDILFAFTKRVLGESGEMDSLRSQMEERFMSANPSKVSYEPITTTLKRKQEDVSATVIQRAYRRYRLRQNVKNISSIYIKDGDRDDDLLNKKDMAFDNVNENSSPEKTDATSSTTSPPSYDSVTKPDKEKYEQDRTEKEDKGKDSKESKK
Nav1.7, sequence (Q07699 19-218 partner): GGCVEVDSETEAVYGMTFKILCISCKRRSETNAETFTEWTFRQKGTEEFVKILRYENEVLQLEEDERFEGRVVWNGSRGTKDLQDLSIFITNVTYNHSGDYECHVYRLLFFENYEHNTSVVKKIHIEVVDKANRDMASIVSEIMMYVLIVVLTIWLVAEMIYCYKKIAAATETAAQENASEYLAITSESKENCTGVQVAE

`Nc1nc2cc(-c3cc(Cl)ccc3Oc3cc(F)c(S(=O)(=O)Nc4ncns4)cc3F)ccc2[nH]1` [Example 38, 4-(2-(2-amino-1H-benzo[d]imidazol-5-yl)-4-chlorophenoxy)-2,5-difluoro-N-(1,2,4-thiadiazol-5-yl)benzenesulfonamide] and `O=S(=O)(Nc1ncns1)c1cc(F)c(Oc2ccc(Cl)cc2-c2cccc3nccn23)cc1F` [Example 30, 4-(4-chloro-2-(imidazo[1,2-a]pyridin-5-yl)phenoxy)-2,5-difluoro-N-(1,2,4-thiadiazol-5-yl)benzenesulfonamide] cannot be ordered by IC50: at most 0.1 µM for the first, at most 0.1 µM for the second.

`O=c1[nH]cc(-c2cc(Cl)ccc2Oc2cc(F)c(S(=O)(=O)Nc3ncns3)cc2F)n2cncc12` [Example 35, 4-(4-chloro-2-(8-oxo-7,8-dihydroimidazo[1,5-a]pyrazin-5-yl)phenoxy)-2,5-difluoro-N-(1,2,4-thiadiazol-5-yl)benzenesulfonamide] and `Nc1noc2ccc(-c3ccccc3Oc3cc(F)c(S(=O)(=O)Nc4ncns4)cc3F)cc12` [Example 58, 4-(2-(3-aminobenzo[d]isoxazol-5-yl)phenoxy)-2,5-difluoro-N-(1,2,4-thiadiazol-5-yl)benzenesulfonamide] cannot be ordered by IC50: 0.1 to 1 µM for the first, at most 0.1 µM for the second.

`O=c1[nH]c2cc(-c3cc(Cl)ccc3Oc3ccc(S(=O)(=O)Nc4ncccn4)cc3F)ccc2o1` [Example 79, 4-(4-chloro-2-(2-oxo-2,3-dihydrobenzo[d]oxazol-5-yl)phenoxy)-3-fluoro-N-(pyrimidin-2-yl)benzenesulfonamide] gave an IC50 of at most 0.1 µM.
